Measurements reported in the supplement of paper PMC10307832.

What was measured:
Experiment in all cases: relative viability (nuclei count vs DMSO), 5 days (fraction); higher = more cells survive
Palbociclib + Trametinib = compound: CC(=O)c1c(C)c2cnc(Nc3ccc(N4CCNCC4)cn3)nc2n(C2CCCC2)c1=O [Palbociclib] + CC(=O)Nc1cccc(-n2c(=O)n(C3CC3)c(=O)c3c(Nc4ccc(I)cc4F)n(C)c(=O)c(C)c32)c1 [Trametinib] (partner 0.02 µM)
Method in brief: (§1)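 Dosing by pin tool came one day after lung cancer cell lines were seeded in 1536-well plates, using either one drug or a fixed anchor-drug dose plus five library-drug doses (not always all listed) in √10 steps. After 5 days, nuclei were counted on 4× images. Relative viability is treated-well nuclei count divided by vehicle-well nuclei count, and values are medians of duplicate plates.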

Palbociclib + Tozasertib = compound: CC(=O)c1c(C)c2cnc(Nc3ccc(N4CCNCC4)cn3)nc2n(C2CCCC2)c1=O [Palbociclib] + Cc1cc(Nc2cc(N3CCN(C)CC3)nc(Sc3ccc(NC(=O)C4CC4)cc3)n2)n[nH]1 [Tozasertib] (partner 0.1 µM)
Method in brief: as §1

Palbociclib + Vorinostat = compound: CC(=O)c1c(C)c2cnc(Nc3ccc(N4CCNCC4)cn3)nc2n(C2CCCC2)c1=O [Palbociclib] + O=C(CCCCCCC(=O)Nc1ccccc1)NO [Vorinostat] (partner 1 µM)
Method in brief: as §1

Palbociclib + Olaparib = compound: CC(=O)c1c(C)c2cnc(Nc3ccc(N4CCNCC4)cn3)nc2n(C2CCCC2)c1=O [Palbociclib] + O=C(c1cc(Cc2n[nH]c(=O)c3ccccc23)ccc1F)N1CCN(C(=O)C2CC2)CC1 [Olaparib] (partner 8 µM)
Method in brief: as §1

Cell Line | relative viability (Palbociclib + Trametinib; first compound 0.01 µM) | relative viability (Palbociclib + Trametinib; first compound 0.03162 µM) | relative viability (Palbociclib + Trametinib; first compound 0.1 µM) | relative viability (Palbociclib + Trametinib; first compound 0.3162 µM) | relative viability (Palbociclib + Trametinib; first compound 1 µM) | relative viability (Palbociclib + Tozasertib; first compound 0.01 µM) | relative viability (Palbociclib + Tozasertib; first compound 0.03162 µM) | relative viability (Palbociclib + Tozasertib; first compound 0.1 µM) | relative viability (Palbociclib + Tozasertib; first compound 0.3162 µM) | relative viability (Palbociclib + Tozasertib; first compound 1 µM) | relative viability (Palbociclib + Vorinostat; first compound 0.01 µM) | relative viability (Palbociclib + Vorinostat; first compound 0.03162 µM) | relative viability (Palbociclib + Vorinostat; first compound 0.1 µM) | relative viability (Palbociclib + Vorinostat; first compound 0.3162 µM) | relative viability (Palbociclib + Vorinostat; first compound 1 µM) | relative viability (Palbociclib + Olaparib; first compound 0.01 µM) | relative viability (Palbociclib + Olaparib; first compound 0.03162 µM) | relative viability (Palbociclib + Olaparib; first compound 0.1 µM) | relative viability (Palbociclib + Olaparib; first compound 0.3162 µM) | relative viability (Palbociclib + Olaparib; first compound 1 µM)
NCI-H2009 | 0.307 | 0.296 | 0.194 | 0.223 | 0.141 | 0.739 | 0.729 | 0.625 | 0.479 | 0.346 | 0.716 | 0.677 | 0.69 | 0.53 | 0.295 | 0.691 | 0.617 | 0.545 | 0.54 | 0.366
NCI-H2342 | 1.09 | 0.825 | 0.695 | 0.758 | 0.669 | 0.556 | 0.4 | 0.493 | 0.544 | 0.409 | 0.713 | 0.63 | 0.895 | 0.638 | 0.585 | 0.497 | 0.504 | 0.375 | 0.422 | 0.419
A-427 | 0.846 | 0.703 | 0.628 | 0.613 | 0.587 | 0.203 | 0.205 | 0.224 | 0.227 | 0.209 | 0.855 | 0.789 | 0.711 | 0.652 | 0.527 | 0.737 | 0.626 | 0.514 | 0.514 | 0.391
NCI-H647 | 0.502 | 0.305 | 0.428 | 0.346 | 0.272 | 0.272 | 0.286 | 0.266 | 0.465 | 0.435 | 0.576 | 0.313 | 0.616 | 0.409 | 0.458 | 0.809 | 0.488 | 0.502 | 0.513 | 0.442
NCI-H838 | 0.643 | 0.477 | 0.396 | 0.376 | 0.175 | 0.272 | 0.248 | 0.213 | 0.194 | 0.204 | 0.71 | 0.623 | 0.543 | 0.478 | 0.314 | 0.812 | 0.64 | 0.605 | 0.46 | 0.263
NCI-H2087 | 0.236 | 0.191 | 0.161 | 0.15 | 0.187 | 0.212 | – | 0.189 | 0.189 | 0.156 | 0.365 | 0.53 | 0.602 | 0.379 | 0.188 | 0.721 | 0.517 | 0.403 | 0.437 | 0.248
CAL-12T | 0.437 | 0.316 | 0.207 | 0.204 | 0.166 | 0.294 | 0.307 | 0.305 | 0.259 | 0.271 | 0.781 | 0.747 | 0.595 | 0.581 | 0.505 | 0.667 | 0.675 | 0.577 | 0.531 | 0.505
NCI-H1755 | 0.804 | 0.746 | 0.688 | 0.719 | 0.597 | 0.578 | 0.596 | 0.558 | 0.506 | 0.506 | 0.721 | 0.62 | 0.489 | 0.606 | 0.491 | 0.875 | 0.841 | 0.812 | 0.788 | 0.664
